According to ChEMBL document CHEMBL1909046, “DrugMatrix in vitro pharmacology data”:

Columns and labels:
[1] = biological target: T1, Cholecystokinin receptor type A (Homo sapiens, UniProt P32238); type: cell membranes, Membrane; conditions: 1321-n1; note: in other assays of this panel Not Active means under 50% inhibition at 10 µM
T1 sequence (P32238 whole entry): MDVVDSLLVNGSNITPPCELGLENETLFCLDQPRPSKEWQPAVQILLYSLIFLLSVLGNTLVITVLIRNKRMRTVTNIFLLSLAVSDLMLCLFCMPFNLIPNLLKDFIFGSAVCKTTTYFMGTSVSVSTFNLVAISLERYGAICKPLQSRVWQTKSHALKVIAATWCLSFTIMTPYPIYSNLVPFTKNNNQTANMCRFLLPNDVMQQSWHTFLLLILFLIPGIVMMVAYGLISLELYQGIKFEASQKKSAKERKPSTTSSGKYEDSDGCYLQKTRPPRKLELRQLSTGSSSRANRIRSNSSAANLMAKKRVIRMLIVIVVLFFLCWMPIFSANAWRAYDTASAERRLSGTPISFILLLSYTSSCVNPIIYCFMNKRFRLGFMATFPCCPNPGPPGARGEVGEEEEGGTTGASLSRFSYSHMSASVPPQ

[2] = biological target: T2, C-X-C chemokine receptor type 1 (Homo sapiens, UniProt P25024); note: in other assays of this panel Not Active means under 50% inhibition at 10 µM
T2 sequence (P25024 whole entry): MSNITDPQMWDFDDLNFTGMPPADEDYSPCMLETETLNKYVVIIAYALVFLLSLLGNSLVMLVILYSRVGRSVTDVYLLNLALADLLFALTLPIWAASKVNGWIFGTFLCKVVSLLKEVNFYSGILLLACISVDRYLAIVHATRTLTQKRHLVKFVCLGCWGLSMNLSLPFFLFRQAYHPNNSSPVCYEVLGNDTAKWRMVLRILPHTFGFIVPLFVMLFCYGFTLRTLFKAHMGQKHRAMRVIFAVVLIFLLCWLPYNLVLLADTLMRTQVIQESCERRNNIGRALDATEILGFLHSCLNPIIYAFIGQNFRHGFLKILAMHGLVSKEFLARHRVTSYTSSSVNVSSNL

D(1A) dopamine receptor = D(1A) dopamine receptor (Homo sapiens, UniProt P21728); assay: DRUGMATRIX: Dopamine D1 radioligand binding (ligand: [3H] SCH-23390); type: cell membranes, CHO, Membrane; conditions: Not Active = under 50% inhibition at 10 µM; for Ki: read-out: Ki
[3] = biological target: T3, C-X-C chemokine receptor type 2 (Homo sapiens, UniProt P25025); type: cell membranes, Membrane; conditions: cho-k1; note: in other assays of this panel Not Active means under 50% inhibition at 10 µM
T3 sequence (P25025 whole entry): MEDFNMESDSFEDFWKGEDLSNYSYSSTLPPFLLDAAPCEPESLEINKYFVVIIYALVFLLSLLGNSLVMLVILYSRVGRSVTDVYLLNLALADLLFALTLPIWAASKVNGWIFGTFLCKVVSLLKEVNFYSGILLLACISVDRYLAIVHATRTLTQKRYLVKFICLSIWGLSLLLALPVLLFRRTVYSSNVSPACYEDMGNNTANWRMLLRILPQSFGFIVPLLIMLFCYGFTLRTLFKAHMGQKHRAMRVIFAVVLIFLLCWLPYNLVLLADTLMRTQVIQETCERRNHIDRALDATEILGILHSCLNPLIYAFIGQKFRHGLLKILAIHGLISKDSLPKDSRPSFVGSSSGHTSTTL

[4] = biological target: T4, 5-hydroxytryptamine receptor 2C (Homo sapiens, UniProt P28335); assay: DRUGMATRIX: Serotonin (5-Hydroxytryptamine) 5-HT2C radioligand binding (ligand: [3H] Mesulergine); type: cell membranes, CHO-K1, Membrane; conditions: Not Active = under 50% inhibition at 10 µM; for Ki: read-out: Ki
T4 sequence (P28335 whole entry): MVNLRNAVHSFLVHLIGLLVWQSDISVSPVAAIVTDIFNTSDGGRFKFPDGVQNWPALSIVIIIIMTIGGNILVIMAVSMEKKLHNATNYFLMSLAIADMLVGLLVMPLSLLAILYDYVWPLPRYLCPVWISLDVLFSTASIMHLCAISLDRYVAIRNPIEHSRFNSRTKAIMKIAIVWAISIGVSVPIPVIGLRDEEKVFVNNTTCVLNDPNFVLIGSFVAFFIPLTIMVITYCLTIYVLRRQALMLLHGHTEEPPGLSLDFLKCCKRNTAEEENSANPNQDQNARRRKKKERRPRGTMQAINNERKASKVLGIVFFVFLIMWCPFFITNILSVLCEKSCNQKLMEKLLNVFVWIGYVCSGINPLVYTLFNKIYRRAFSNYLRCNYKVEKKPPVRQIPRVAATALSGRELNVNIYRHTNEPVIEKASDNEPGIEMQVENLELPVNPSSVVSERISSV

[5] = biological target: T5, Alpha-2A adrenergic receptor (Homo sapiens, UniProt P08913); type: cell membranes, Sf9, Membrane; note: in other assays of this panel Not Active means under 50% inhibition at 10 µM
T5 sequence (P08913 whole entry): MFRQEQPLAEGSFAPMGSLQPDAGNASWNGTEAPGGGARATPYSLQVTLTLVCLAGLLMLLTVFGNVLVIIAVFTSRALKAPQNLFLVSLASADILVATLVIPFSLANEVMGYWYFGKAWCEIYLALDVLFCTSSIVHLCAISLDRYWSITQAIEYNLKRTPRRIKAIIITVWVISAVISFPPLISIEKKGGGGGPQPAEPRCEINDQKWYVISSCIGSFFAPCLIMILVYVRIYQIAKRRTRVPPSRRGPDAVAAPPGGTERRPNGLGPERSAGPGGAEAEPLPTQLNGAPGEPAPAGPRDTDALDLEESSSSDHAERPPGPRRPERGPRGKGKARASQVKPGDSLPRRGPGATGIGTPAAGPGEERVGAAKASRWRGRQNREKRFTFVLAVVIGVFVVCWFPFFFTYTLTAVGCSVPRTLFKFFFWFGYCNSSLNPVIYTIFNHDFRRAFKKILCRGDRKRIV

D(1A) dopamine receptor, sequence (P21728 whole entry): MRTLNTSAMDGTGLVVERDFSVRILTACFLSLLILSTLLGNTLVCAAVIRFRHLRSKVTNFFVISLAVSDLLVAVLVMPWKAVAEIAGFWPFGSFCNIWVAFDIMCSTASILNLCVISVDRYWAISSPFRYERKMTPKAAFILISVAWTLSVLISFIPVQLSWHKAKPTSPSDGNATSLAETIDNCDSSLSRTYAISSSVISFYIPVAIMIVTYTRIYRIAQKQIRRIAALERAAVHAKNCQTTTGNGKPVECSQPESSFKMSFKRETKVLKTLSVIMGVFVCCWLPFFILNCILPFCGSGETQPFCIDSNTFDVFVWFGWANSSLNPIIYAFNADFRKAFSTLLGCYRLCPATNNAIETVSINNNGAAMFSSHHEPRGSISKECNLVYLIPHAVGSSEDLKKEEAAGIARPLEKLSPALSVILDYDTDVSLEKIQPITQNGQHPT

SMILES | IC50 [1] | IC50 [2] | IC50 (D(1A) dopamine receptor; cho) | IC50 [3] | IC50 ([4]; cho-k1) | IC50 ([5]; sf9) | IC50 (D(1A) dopamine receptor; read-out: IC50) | Ki (D(1A) dopamine receptor) | IC50 ([4]; read-out: IC50) | Ki [4] | IC50 ([5]; read-out: IC50) | Ki ([5]; read-out: Ki)
Nn1nnc2ccccc21 | Not Active | Not Active | Not Active | Not Active | Not Active | Not Active | – | – | – | – | – | –
CC[C@]1(O)CC[C@H]2[C@@H]3CCC4=CCCC[C@@H]4[C@H]3CC[C@@]21C | Not Active | Not Active | Not Active | Not Active | Not Active | Not Active | – | – | – | – | – | –
N[C@@H](Cc1ccc(F)cc1)C(=O)O | Not Active | Not Active | Not Active | Not Active | Not Active | Not Active | – | – | – | – | – | –
CCOC(=O)[C@H](CCc1ccccc1)N[C@@H](C)C(=O)N1Cc2ccccc2C[C@H]1C(=O)O | Not Active | Not Active | Not Active | Not Active | Not Active | Not Active | – | – | – | – | – | –
O=C(c1ccccc1Cl)N1CCC(Cc2ccccc2)CC1 | Not Active | Not Active | Not Active | Not Active | Not Active | Not Active | – | – | – | – | – | –
CCOC(=O)[C@H](CCc1ccccc1)N[C@@H](C)C(=O)N1CCC[C@H]1C(=O)O | Not Active | Not Active | Not Active | Not Active | Not Active | Not Active | – | – | – | – | – | –
Clc1cc2c(cc1Cl)Oc1cc(Cl)c(Cl)cc1O2 [2,3,7,8-TETRACHLORODIBENZO-P-DIOXIN] | Not Active | Not Active | Not Active | Not Active | Not Active | Not Active | – | – | – | – | – | –
C=C1/C(=C\C=C2/CCC[C@]3(C)[C@@H]([C@H](C)CCCC(C)C)CC[C@@H]23)C[C@@H](O)C[C@@H]1O [ALFACALCIDOL] | Not Active | Not Active | Not Active | Not Active | Not Active | Not Active | – | – | – | – | – | –
CCCCCC[C@H]1C(=O)O[C@H](C)[C@H](NC(=O)c2cccc(NC=O)c2O)C(=O)O[C@@H](C)[C@@H]1OC(=O)CC(C)C [ANTIMYCIN A] | Not Active | Not Active | Not Active | Not Active | Not Active | Not Active | – | – | – | – | – | –
C[C@@H]1CC[C@H]2[C@@H](C)C(=O)O[C@@H]3O[C@@]4(C)CC[C@@H]1[C@]32OO4 [ARTEMISININ] | Not Active | Not Active | Not Active | Not Active | Not Active | Not Active | – | – | – | – | – | –
CO[C@H]1[C@@H](O)[C@H](N)[C@@H](O[C@H]2O[C@H]([C@H](C)N)CC[C@H]2N)[C@H](O)[C@@H]1N(C)C(=O)CN [ASTROMICIN] | Not Active | Not Active | Not Active | Not Active | Not Active | Not Active | – | – | – | – | – | –
[N-]=[N+]=CC(=O)OC[C@H](N)C(=O)O [AZASERINE] | Not Active | Not Active | Not Active | Not Active | Not Active | Not Active | – | – | – | – | – | –
CC[C@H]1OC(=O)[C@H](C)[C@@H](O[C@H]2C[C@@](C)(OC)[C@@H](O)[C@H](C)O2)[C@H](C)[C@@H](O[C@@H]2O[C@H](C)C[C@H](N(C)C)[C@H]2O)[C@](C)(O)C[C@@H](C)CN(C)[C@H](C)[C@@H](O)[C@]1(C)O [AZITHROMYCIN] | Not Active | Not Active | Not Active | Not Active | Not Active | Not Active | – | – | – | – | – | –
CC(C)(C)c1ccc(S(=O)(=O)/C=C/C#N)cc1 [BAY-11-7085] | Not Active | Not Active | – | Not Active | Not Active | Not Active | – | – | – | – | – | –
CCc1oc2ccccc2c1C(=O)c1cc(Br)c(O)c(Br)c1 [BENZBROMARONE] | Not Active | Not Active | Not Active | Not Active | Not Active | Not Active | – | – | – | – | – | –
O=c1cc(-c2ccccc2)oc2ccc3ccccc3c12 [BETA-NAPHTHOFLAVONE] | Not Active | Not Active | Not Active | Not Active | Not Active | Not Active | – | – | – | – | – | –
CC(C)C[C@H]1C(=O)N2CCC[C@H]2[C@]2(O)O[C@](NC(=O)[C@@H]3C=C4c5cccc6[nH]c(Br)c(c56)C[C@H]4N(C)C3)(C(C)C)C(=O)N12 [BROMOCRIPTINE] | Not Active | Not Active | – | Not Active | – | – | 2.89 µM | 1.44 µM | 0.532 µM | 0.278 µM | – | –
CS(=O)(=O)OCCCCOS(C)(=O)=O [BUSULFAN] | Not Active | Not Active | Not Active | Not Active | Not Active | Not Active | – | – | – | – | – | –
O=C(/C=C/c1ccc(O)c(O)c1)OCCc1ccccc1 [CAFFEIC ACID PHENETHYL ESTER] | Not Active | Not Active | Not Active | Not Active | Not Active | Not Active | – | – | – | – | – | –
COc1cc(CNC(=O)CCCC/C=C/C(C)C)ccc1O [CAPSAICIN] | Not Active | Not Active | Not Active | Not Active | Not Active | Not Active | – | – | – | – | – | –
NC(=O)N1c2ccccc2C=Cc2ccccc21 [CARBAMAZEPINE] | Not Active | Not Active | Not Active | Not Active | Not Active | Not Active | – | – | – | – | – | –
CCOC(=O)n1ccn(C)c1=S [CARBIMAZOLE] | Not Active | Not Active | Not Active | Not Active | Not Active | Not Active | – | – | – | – | – | –
Oc1ccccc1O [CATECHOL] | Not Active | Not Active | Not Active | Not Active | Not Active | Not Active | – | – | – | – | – | –
C#C[C@]1(O)CC[C@H]2[C@@H]3CCC4=Cc5oncc5C[C@]4(C)[C@H]3CC[C@@]21C [DANAZOL] | Not Active | Not Active | – | Not Active | Not Active | – | – | – | – | – | 18.3 µM | 6.87 µM
CN1C[C@H](C(=O)N[C@]2(C)O[C@@]3(O)[C@@H]4CCCN4C(=O)[C@H](Cc4ccccc4)N3C2=O)C[C@@H]2c3cccc4[nH]cc(c34)C[C@H]21 [DIHYDROERGOTAMINE] | Not Active | Not Active | – | Not Active | – | – | 2.39 µM | 1.2 µM | 0.09 µM | 0.047 µM | – | –
N=C(N)N/N=C/c1c(Cl)cccc1Cl [GUANABENZ] | Not Active | Not Active | Not Active | Not Active | – | – | – | – | 0.204 µM | 0.107 µM | – | –
